According to patent EP0463492A1, “2,6-Diarylpyridin derivatives” (BAYER AG, priority 1990, dated 1992):

System: Testpflanzen
Assay: Post-emergence test (greenhouse)
Format: in vivo
Conditions: post-emergence spray on test plants 5 - 15 cm high, 1000 l Wasser/ha; rated after three weeks as % Schädigung versus untreated control (0 % = keine Wirkung, 100 % = totale Vernichtung); application rates and plant species not given
Source text: Post-emergence-Test (Gewächshaus) • Lösungsmittel: 5 Gewichtsteile Aceton • Emulgator: 1 Gewichtsteil Alkylarylpolyglykolether
Zur Herstellung einer zweckmäßigen Wirkstoffzubereitung vermischt man 1 Gewichtsteil Wirkstoff mit den angegebenen Menge Lösungsmittel, gibt die angegebene Menge Emulgator zu und verdünnt das Konzentrat mit Wasser auf die gewünschte Konzentration.
Mit der Wirkstoffzubereitung spritzt man Testpflanzen, welche eine Höhe von 5 - 15 cm haben so, daß die jeweils gewünschten Wirkstoffmengen pro Flächeneinheit ausgebracht werden. Die Konzentration der Spritzbrühe wird so gewählt, daß in 1000 I Wasser/ha die jeweils gewünschten Wirkstoffmengen ausgebracht werden. Nach drei Wochen wird der Schädigungsgrad der Pflanzen bonitiert in % Schädigung im Vergleich zur Entwicklung der unbehandelten Kontrolle.
Es bedeuten: • 0 % = keine Wirkung (wie unbehandelte Kontrolle) • 100 % = totale Vernichtung

`CCOc1cc(-c2ccccc2)nc(-c2cccc(CC)c2)c1` [Beispiel 2, 4-Ethoxy-2-(3-ethylphenyl)-6-phenyl-pyridin] was tested, and the “Wirksamkeit und Nutzpflanzenselektivität” value was “sehr gute Wirksamkeit und Nutzpflanzenselektivität”.
